BindingDB's records for doi:10.1016/j.bmc.2004.10.042 (Uppsala University, 2005)

What follows are compounds tested against T1, Dimer of Gag-Pol polyprotein [489-587] (Human immunodeficiency virus 1, UniProt P12497) (assay: Enzyme Inhibition Assay). Conditions: pH 5; 30 °C.
T1 construct: 489-587
Description: The effects of the inhibitors on the activity of HIV-1 proteinase was determined by a fluorometric assay with an internally quenched fluorescent peptide substrate. Measurements were performed in 96-well plates with a Fluoroskan plate reader. Excitation and emission wavelengths were 355 and 500 nm, respectively.Data were analyzed by nonlinear regression by using SIMFIT, and an equation for tightly binding inhibitors.
With CCS(=O)(=O)c1ccc(-c2ccccc2CN2C[C@H](O)[C@@H](O)CN(Cc3ccccc3-c3ccc(S(=O)(=O)CC)cc3)S2(=O)=O)cc1 [(4S,5S)-2,7-bis({2-[4-(ethanesulfonyl)phenyl]phenyl}methyl)-4,5-dihydroxy-1,2,7-thiadiazepane-1,1-dione] the Ki was 5200 nM. O=S1(=O)N(Cc2ccccc2-c2cc3ccccc3o2)C[C@H](O)[C@@H](O)CN1Cc1ccccc1-c1cc2ccccc2o1 [(4S,5S)-2,7-bis({[2-(1-benzofuran-2-yl)phenyl]methyl})-4,5-dihydroxy-1,2,7-thiadiazepane-1,1-dione] showed a Ki of 530 nM. COc1ccc(-c2ccccc2CN2C[C@H](O)[C@@H](O)CN(Cc3ccccc3-c3ccc(OC)c(OC)c3)S2(=O)=O)cc1OC [(4S,5S)-2,7-bis({[2-(3,4-dimethoxyphenyl)phenyl]methyl})-4,5-dihydroxy-1,2,7-thiadiazepane-1,1-dione] gave a Ki of 9400 nM. CC(=O)c1ccc(-c2ccccc2CN2C[C@H](O)[C@@H](O)CN(Cc3ccccc3-c3ccc(C(C)=O)cc3)S2(=O)=O)cc1 [(4S,5S)-2,7-bis({[2-(4-acetylphenyl)phenyl]methyl})-4,5-dihydroxy-1,2,7-thiadiazepane-1,1-dione] was tested, and the Ki was 5300 nM. With CCCCc1ccc(-c2ccccc2CN2C[C@H](O)[C@@H](O)CN(Cc3ccccc3-c3ccc(CCCC)cc3)S2(=O)=O)cc1 [(4S,5S)-2,7-bis({[2-(4-butylphenyl)phenyl]methyl})-4,5-dihydroxy-1,2,7-thiadiazepane-1,1-dione] the Ki was 1900 nM. Work on O=S1(=O)N(Cc2ccccc2-c2ccc(F)cc2)C[C@H](O)[C@@H](O)CN1Cc1ccccc1-c1ccc(F)cc1 [(4S,5S)-2,7-bis({[2-(4-fluorophenyl)phenyl]methyl})-4,5-dihydroxy-1,2,7-thiadiazepane-1,1-dione] yielded a Ki of 5300 nM. For O=S1(=O)N(Cc2ccccc2Cc2ccccc2)C[C@H](O)[C@@H](O)CN1Cc1ccccc1Cc1ccccc1 [(4S,5S)-2,7-bis[(2-benzylphenyl)methyl]-4,5-dihydroxy-1,2,7-thiadiazepane-1,1-dione], the Ki was 2500 nM. With O=S1(=O)N(Cc2ccccc2)C[C@H](O)[C@@H](O)CN1Cc1ccccc1 [(4S,5S)-2,7-dibenzyl-4,5-dihydroxy-1,2,7-thiadiazepane-1,1-dione] the Ki was > 20000 nM. For CSc1ccccc1-c1ccccc1CN1C[C@H](O)[C@@H](O)CN(Cc2ccccc2-c2ccccc2SC)S1(=O)=O [(4S,5S)-4,5-dihydroxy-2,7-bis({2-[2-(methylsulfanyl)phenyl]phenyl}methyl)-1,2,7-thiadiazepane-1,1-dione], the Ki was 1100 nM. CC(C)c1cccc(-c2ccccc2CN2C[C@H](O)[C@@H](O)CN(Cc3ccccc3-c3cccc(C(C)C)c3)S2(=O)=O)c1 [(4S,5S)-4,5-dihydroxy-2,7-bis({2-[3-(propan-2-yl)phenyl]phenyl}methyl)-1,2,7-thiadiazepane-1,1-dione] gave a Ki of 3200 nM. With O=S1(=O)N(Cc2ccccc2-c2cccc(C(F)(F)F)c2)C[C@H](O)[C@@H](O)CN1Cc1ccccc1-c1cccc(C(F)(F)F)c1 [(4S,5S)-4,5-dihydroxy-2,7-bis({2-[3-(trifluoromethyl)phenyl]phenyl}methyl)-1,2,7-thiadiazepane-1,1-dione] the Ki was 2400 nM. With O=S1(=O)N(Cc2ccccc2/C=C/c2ccccc2)C[C@H](O)[C@@H](O)CN1Cc1ccccc1/C=C/c1ccccc1 [(4S,5S)-4,5-dihydroxy-2,7-bis({2-[(E)-2-phenylethenyl]phenyl}methyl)-1,2,7-thiadiazepane-1,1-dione] the Ki was 2000 nM. Compound COc1ccccc1-c1ccccc1CN1C[C@H](O)[C@@H](O)CN(Cc2ccccc2-c2ccccc2OC)S1(=O)=O [(4S,5S)-4,5-dihydroxy-2,7-bis({[2-(2-methoxyphenyl)phenyl]methyl})-1,2,7-thiadiazepane-1,1-dione] has a Ki of 5100 nM. O=S1(=O)N(Cc2ccccc2CCc2ccccc2)C[C@H](O)[C@@H](O)CN1Cc1ccccc1CCc1ccccc1 [(4S,5S)-4,5-dihydroxy-2,7-bis({[2-(2-phenylethyl)phenyl]methyl})-1,2,7-thiadiazepane-1,1-dione] gave a Ki of 3000 nM. Cc1cccc(-c2ccccc2CN2C[C@H](O)[C@@H](O)CN(Cc3ccccc3-c3cccc(C)c3)S2(=O)=O)c1 [(4S,5S)-4,5-dihydroxy-2,7-bis({[2-(3-methylphenyl)phenyl]methyl})-1,2,7-thiadiazepane-1,1-dione] showed a Ki of 2700 nM. O=[N+]([O-])c1cccc(-c2ccccc2CN2C[C@H](O)[C@@H](O)CN(Cc3ccccc3-c3cccc([N+](=O)[O-])c3)S2(=O)=O)c1 [(4S,5S)-4,5-dihydroxy-2,7-bis({[2-(3-nitrophenyl)phenyl]methyl})-1,2,7-thiadiazepane-1,1-dione] showed a Ki of 7400 nM. For COc1ccc(-c2ccccc2CN2C[C@H](O)[C@@H](O)CN(Cc3ccccc3-c3ccc(OC)cc3)S2(=O)=O)cc1 [(4S,5S)-4,5-dihydroxy-2,7-bis({[2-(4-methoxyphenyl)phenyl]methyl})-1,2,7-thiadiazepane-1,1-dione], the Ki was 9700 nM. With Cc1ccc(-c2ccccc2CN2C[C@H](O)[C@@H](O)CN(Cc3ccccc3-c3ccc(C)cc3)S2(=O)=O)cc1 [(4S,5S)-4,5-dihydroxy-2,7-bis({[2-(4-methylphenyl)phenyl]methyl})-1,2,7-thiadiazepane-1,1-dione] the Ki was 1500 nM. O=S1(=O)N(Cc2ccccc2-c2ccsc2)C[C@H](O)[C@@H](O)CN1Cc1ccccc1-c1ccsc1 [(4S,5S)-4,5-dihydroxy-2,7-bis({[2-(thiophen-3-yl)phenyl]methyl})-1,2,7-thiadiazepane-1,1-dione] showed a Ki of 2700 nM. O=S1(=O)N(Cc2ccccc2-c2ccccc2)C[C@H](O)[C@@H](O)CN1Cc1ccccc1-c1ccccc1 [(4S,5S)-4,5-dihydroxy-2,7-bis[(2-phenylphenyl)methyl]-1,2,7-thiadiazepane-1,1-dione] showed a Ki of 2500 nM.
